Test results as given in patent publication US5011952A, “Phospholipase A2 inhibitor” (Shionogi & Co., Ltd., priority 1989, dated 1991).

Columns and labels:
[1] = molecular target: T1, PLA2 released from thrombin-stimulated rat platelets (Rattus norvegicus, UniProt P14423); experiment: PLA2 inhibitory activity, rat platelet-derived PLA2; type: biochemical; conditions: for inhibitory concentrations of α-thielocin versus β-thielocin: isomers equilibrated in the reaction solution
T1 construct: PLA2 released from thrombin-stimulated rat platelets; from tissue
T1 sequence (P14423 22-146): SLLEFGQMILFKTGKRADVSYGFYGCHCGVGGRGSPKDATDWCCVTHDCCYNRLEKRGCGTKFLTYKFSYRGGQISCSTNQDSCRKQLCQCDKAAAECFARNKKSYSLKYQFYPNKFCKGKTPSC
Procedure: PLA2 inhibitory activities of thielocin were determined according to the following procedure.
PLA2 released from thrombin-stimulated rat platelets was prepared by immuno-affinity chromatography using antibody MD 7.1-coupled Sepharose (Murakami et. al, J. Biochem 104: 884-888, 1988). The standard assay conditions included, 250 μl of Tris-HCl buffer (100 mM, pH 7.4), CaCl2 (3 mM), 40 μM [^14 C] phosphatidylethanolamine and enzyme. The reaction was started by the addition of the enzyme solution. Following incubation at 37° C. for 20 min the reactions were terminated by addition of 1.25 ml of Dole's reagent (Dole, V. P. & H, Meinerts, J. Biol. Chem 235: 2595-2599, 1960). Then released free fatty acid was extracted, and counted in Liquiflour (Du Pont-New England Nuclear) to determine the release of the radioactivity. Inhibition activity is expressed as percent of enzyme control.

[2] = Solubility in solvents; type: physicochemical
[3] = system: snake venom-derived PLA2; experiment: PLA2 inhibitory activity, snake venom-derived PLA2; type: biochemical
[4] = molecular target: T2, PLA2 derived from porcine pancreas (Sus scrofa, UniProt P00592); experiment: PLA2 inhibitory activity, porcine pancreas-derived PLA2; type: biochemical; conditions: read-out: concentration required for exhibiting 50 % inhibitory activity
T2 construct: porcine-derived PLA2; from tissue; host or cells: porcine pancreas
T2 sequence (P00592 23-146): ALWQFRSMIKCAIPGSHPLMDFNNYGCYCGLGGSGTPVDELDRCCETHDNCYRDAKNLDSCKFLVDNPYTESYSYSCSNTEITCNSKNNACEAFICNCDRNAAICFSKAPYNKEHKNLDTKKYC

Compound | inhibitory concentrations of α-thielocin versus β-thielocin [1] | Solubility ([2]; acetone) | Solubility ([2]; acetonitrile) | Solubility ([2]; chloroform) | Solubility ([2]; dimethylsulfoxide) | Solubility ([2]; ethanol) | Solubility ([2]; ethyl acetate) | Solubility ([2]; ethyl ether) | Solubility ([2]; hexane) | Solubility ([2]; methanol) | Solubility ([2]; petroleum ether) | Solubility ([2]; water) | IC50 ([1]; rat platelet-derived PLA2, [14C]phosphatidylethanolamine substrate, 37° C., 20 min, read-out: concentration required for exhibiting 50 % inhibitory activity) [µM] | concentration required for exhibiting 50 % inhibitory activity [3] [µg/mL] | IC50 [4] [µM]
COc1c(C)c(OC(=O)c2c(C)c(C)c(OC(=O)C3=C(C)C(C)(O)C4(O)Oc5c(C)c(OC)c(C(=O)Oc6c(C)c(C)c(C(=O)O)c(OC)c6C)c(C)c5CC4(C)C3=O)c(C)c2OC)c(C)c(C)c1C(=O)O (stereo not drawn) [Thielocin β, β-thielocin] | not distinguished | slightly soluble | slightly soluble | slightly soluble | Soluble | slightly soluble | slightly soluble | sparingly soluble or insoluble | sparingly soluble or insoluble | slightly soluble | sparingly soluble or insoluble | sparingly soluble or insoluble |  |  | 
COc1c(C)c(OC(=O)c2c(C)c(C)c(OC(=O)C3=C(C)C(C)(O)C4(O)Oc5c(C)c(OC)c(C(=O)Oc6c(C)c(C)c(C(=O)O)c(OC)c6C)c(C)c5CC4(C)C3=O)c(C)c2OC)c(C)c(C)c1C(=O)O (stereo not drawn) [Thielocin α, α-thielocin] | not distinguished | Soluble | Soluble | Soluble | Soluble | slightly soluble | Soluble | sparingly soluble or insoluble | sparingly soluble or insoluble | slightly soluble | sparingly soluble or insoluble | sparingly soluble or insoluble |  |  | 
COc1c(C)c(OC(=O)c2c(C)c(C)c(OC(=O)C3=C(C)C(C)(O)C4(O)Oc5c(C)c(OC)c(C(=O)Oc6c(C)c(C)c(C(=O)O)c(OC)c6C)c(C)c5CC4(C)C3=O)c(C)c2OC)c(C)c(C)c1C(=O)O (stereo not drawn) [thielocin] |  |  |  |  |  |  |  |  |  |  |  |  | 0.00501 | 10 | 47.1
